Reference: PMC3139790 (Bioorganic & medicinal chemistry, 2011)

What was measured:
Vaccinia = conditions: read-out: EC50 Vaccinia; in vitro; ref Beadle et al. (ref. [13]); cited from earlier work
HCMV = conditions: read-out: EC50 HCMV; in vitro; ref Beadle et al. (ref. [13]); cited from earlier work
Cowpox = conditions: read-out: EC50 Cowpox; cited from earlier work
[1] = test system: genotype 1b and 2a HCV replicons; assay: HCV replicon assays, genotype 1b and 2a stated together; format: cell-based, hepatitis C virus; conditions: for EC50: Hepatitis C virus, GETYPE1B, read-out: EC50 in genotype 1b and 2a HCV replicons
[2] = test system: genotype 1b HCV replicon (BM4-5); assay: HCV replicon assay, BM4-5; format: cell-based, hepatitis C virus; conditions: CC50/EC50, genotype 1b
[3] = test system: genotype 2a HCV replicon (JFH-1); assay: HCV replicon assay, JFH-1; format: cell-based, hepatitis C virus; conditions: CC50/EC50, genotype 2a
HIV-1LAI [4] = assay: HIV-1 inhibition assay in MT-2 cells; format: cell-based; conditions: HIV-1 in MT-2 cells
HIV-1LAI [5] = conditions: HIV-1 infected MT-2 cells, previous studies; cited from earlier work

**Q.** What does the source list for `CCCCCCCCCCCCCCCCCCOCCOP(=O)(O)CO[C@H](CO)Cn1cnc2c(N)ncnc21` [Compound 1, octadecyloxyethyl 9-(S)-[3-hydroxy-2-(phosphonomethoxy)propyl]adenine]?
**A.** EC50 (Vaccinia): 20 ± 10 nM; EC50 (HCMV): 3 ± 1 nM; EC50 (Cowpox): 50 ± 40 nM

**Q.** Which EC50 [1] does the source give for `CCCCCCCCCCCCCCCCCCOCCOP(=O)(O)CO[C@H](COC)Cn1cnc2c(N)ncnc21` [Compound 15, Octadecyloxyethyl (S)-9-[(3-methoxy-2-phosphonomethoxy)propyl]adenine] here?
**A.** 1 to 2 µM

**Q.** Which results are given for `CCCCCCCCCCCCCCCCCCOCCOP(=O)([O-])CO[C@H](COC)Cn1cnc2c(=O)[nH]c(N)nc21.[Na+]` [Compound 34, Octadecyloxyethyl (S)-9-[(3-methoxy-2-phosphonomethoxy)propyl]guanine]?
**A.** Selectivity Index BM4-5 (1b) [2]: >18.2; Selectivity Index JFH-1 (2a) [3]: >14.0

**Q.** With `CCCCCCCCCCCCCCCCCCOCCOP(=O)([O-])CO[C@@H](COC)Cn1cnc2c(=O)[nH]c(N)nc21.[Na+]` [Compound 35, Octadecyloxyethyl (R)-9-[(3-methoxy-2-phosphonomethoxy)propyl]guanine] as the compound, how does the “Selectivity Index BM4-5 (1b)” value [2] read?
**A.** >11.9

**Q.** What about the “Selectivity Index” value (HIV-1LAI [4]) of the same compound?
**A.** >4.4×10^6

**Q.** And the “Selectivity Index JFH-1 (2a)” value [3]?
**A.** >12.1

**Q.** For `CCCCCCCCCCCCCCCCCCOCCOP(=O)([O-])CO[C@H](COC)Cn1ccc(N)nc1=O.[Na+]` [Compound 40, Octadecyloxyethyl (S)-1-[(3-methoxy-2-phosphonomethoxy)propyl]cytosine], which “anti-HCV activity (in words)” value ([1]; genotype 1b and 2a replicons) is on record?
**A.** inactive

**Q.** For `CCCCCCCCCCCCCCCCOCCCOP(=O)(O)CO[C@H](COC)Cn1cnc2c(OC)ncnc21` [Compound 43, Hexadecyloxypropyl (S)-9-[(3-methoxy-2-phosphonomethoxy)propyl]-6-methoxypurine], which EC50 [1] is on record?
**A.** 8.9 to 12.5 µM

**Q.** Which EC50 [1] does the source give for `CCCCCCCCCCCCCCCCOCCCOP(=O)(O)CO[C@H](COC)Cn1cnc2c(OC)nc(N)nc21` [Compound 44, Hexadecyloxypropyl (S)-9-[(3-methoxy-2-phosphonomethoxy)propyl]-6-O-methylguanine] here?
**A.** 18 to 26 µM

**Q.** Which EC50 (HIV-1LAI [5]) does the source give for `Nc1ncnc2c1ncn2CCOCP(=O)(O)O` [adefovir] here?
**A.** 1100 nM

**Q.** Which EC50 (HIV-1LAI [5]) does the source give for `C[C@H](Cn1cnc2c(N)ncnc21)OCP(=O)(O)O` [tenofovir] here?
**A.** 650 nM
